# “Also recorded” adds a separate entry of the source. Positions of bridges follow the written chain, without caps; N, C: chain ends. Chains are numbered I, II in the order given. No end group written: not given here.
# B1: HD-5 (peptide, UniProt Q01523 20-94, looked up)
# Defensin alpha 5: ESLQERADEATTQKQSGEDNQDLAISFAGNGLSALRTSGSQARATCYCRTGRCATRESLSGVCEISGRLYRLCCR
# modifications: Defensin-5
# Tests used:
# S. aureus [1] = assay: effect of Mg2+ on antibacterial activity; type: cell-based, Staphylococcus aureus; conditions: 2 μM peptide, 0, 1, 2 and 5 mM MgCl2, 4 h
# Description: (§1) FIG. 7. Effect of Mg^2+ on the antibacterial activity of rattusin and cryptdin-4 against S. aureus (A) and E. coli O157:H7 (B). S. aureus or E. coli were incubated with rattusin, cryptdin-4, or an equal volume of 0.01% acetic acid (no peptide) in 25 mM sodium phosphate buffer, containing 1% TSB with 0, 1, 2 and 5 mM MgCl2, pH 7.4, for 4 h. Surviving bacteria were plated and counted. Both peptides were used at identical concentrations for each bacterial strain (2 and 4 μM against S. aureus and E. coli, respectively). Data shown are means ± SEM of 2-3 independent experiments.
# (§2) The effect of Mg^2+ on the antibacterial activity was studied by incubating rattusin and cryptdin-4 for 4 h with 90 μl of 5×10^5 CFU/ml Staphylococcus aureus at a concentration of 2 μM each or with E. coli O157:H7 at a concentration of 4 μM each in 1% TSB, 25 mM sodium phosphate buffer, containing 0, 1, 2 and 5 mM of MgCl2, pH 7.4.
# Caco-2 cells = assay: cytotoxicity assay, alamarBlue dye; type: cell-based, human; conditions: 100 μM peptide, 24 h, DMEM with and without 10% FBS
# Description: FIG. 8. Absence of cytotoxicity of rattusin and cryptdin-4 to Caco-2 cells. Cells were incubated with 100 μM of rattusin, cryptdin-4 or fowlicidin-1 for 24 h in DMEM with and without 10% fetal bovine serum for 24 hours. Cell viability was measured with an alamarBlue dye-based method. Data are representative of two independent experiments done in duplicate.
# Cytotoxicity against human colon adenocarcinoma (CACO-2) cell line (ATCC, Manassas, Va.) was measured using alamarBlue dye (Biosource, Camarillo, Calif.) as described previously (26, 27). Briefly, CACO-2 cells were seeded into 96 well plate at 5×10^4 in Dulbecco's modified Eagle's medium (DMEM) with 10% FBS and were grown overnight. The next day cells were washed once with DMEM followed by the addition of fresh DMEM with and without 10% FBS and 100 μM of rattusin or cryptdin-4 or fowlicidin-1. […] The plate was read with excitation at 545 nm and emission at 590 nm. The percentage of cell death was calculated as [1−(Fpeptide−Fbackground)/(Facetic acid−Fbackground)]×100, where Fpeptide is the fluorescence of cells exposed to 100 μM peptide, Facetic acid is the fluorescence of cells exposed to 0.01% acetic acid only, and Fbackground is the background fluorescence of 10% alamarBlue dye in cell culture medium without cells.
# [2] = test system: representative Gram-positive and Gram-negative bacteria; assay: modified broth microdilution assay, summary over strains; type: cell-based; conditions: 100 mM NaCl versus no NaCl
# Description: All bacterial strains were purchased from either MicroBiologics (St. Cloud, Minn.) or ATCC (Manassas, Va.). Bacteria were grown in trypticase soy broth (TSB) overnight and subcultured in the same broth for 3-4 h at 37° C. in a shaking incubator to the mid log phase. To study the antibacterial spectrum, a modified broth microdilution assay was used as described (26). Briefly, the mid log phase bacteria were washed with 25 mM sodium phosphate buffer, pH 7.4, and suspended in 5% TSB in 25 mM sodium phosphate, pH 7.4, to 5×10^5 CFU/ml with and without 100 mM NaCl. Bacteria (90 μl) were then dispensed in a 96-well plate, followed by addition of peptides (10 μl) serially diluted in 0.01% acetic acid. After overnight incubation at 37° C., the minimum inhibitory concentration (MIC) of each peptide was determined as the lowest concentration that gave no visible bacterial growth.
# Refolded rattusin was then used to study its antibacterial activity against representative Gram-positive and Gram-negative bacteria by a modified broth microdilution assay with and without 100 mM NaCl.
# S. aureus ATCC 25923 = assay: kinetics of bacterial killing, colony counting assay; type: cell-based, Staphylococcus aureus; conditions: 2 μM peptide
# Description: (§3) FIG. 5. Kinetics of killing of S. aureus in the absence (A) and presence (B) of 100 mM NaCl by rattusin, cryptdin-4 and HD-5. S. aureus ATCC 25923 was incubated with 2 μM rattusin, cryptdin-4, HD-5, or an equal volume of 0.01% acetic acid (no peptide) in duplicate in 25 mM sodium phosphate buffer, pH 7.4, 1% TSB with and without 100 mM NaCl for 10, 30, 60, 120 and 240 min. Surviving bacteria were plated and counted. Data shown are means ± SEM of two independent experiments.
# (§4) To study the kinetics of bacterial killing, a standard colony counting assay was used as described (26). Rattusin and cryptin-4 were incubated with 90 μl of 5×10^5 CFU/ml Staphylococcus aureus ATCC 25923 at the concentration of 2 μM each or with E. coli O157:H7 at the concentration of 4 μM each in 25 mM sodium phosphate buffer, pH 7.4, with and without 100 mM NaCl. The reaction was incubated at 37° C. for 10, 30, 60, 120 and 240 min and diluted rapidly with ice-cold PBS and plated immediately. Plates were incubated at 37° C. for 14-18 hours and viable bacteria were counted.
# E. coli O157:H7 [3] = assay: effect of Mg2+ on antibacterial activity; type: cell-based; conditions: 4 μM peptide, 0, 1, 2 and 5 mM MgCl2, 4 h
# Description: as §1, §2
# E. coli O157:H7 [4] = assay: effect of salinity on antibacterial activity; type: cell-based; conditions: 4 μM peptide, 4 h, up to 200 mM NaCl
# Description: (§5) FIG. 6. Effect of salinity on the antibacterial activity of rattusin against S. aureus (A) and E. coli O157:H7 (B). S. aureus and E. coli were incubated with 2 and 4 μM of rattusin, or an equal volume of 0.01% acetic acid (no peptide) in 25 mM sodium phosphate buffer, pH 7.4, 1% TSB with increasing concentrations of NaCl, for 4 h. Surviving bacteria were plated and counted. Data shown are means ± SEM of two independent experiments.
# S. aureus [5] = assay: effect of salinity on antibacterial activity; type: cell-based; conditions: 2 μM peptide, 4 h, up to 200 mM NaCl
# Description: as §5
# [6] = test system: E. coli O157:H7 ATCC 700728; assay: kinetics of bacterial killing, colony counting assay; type: cell-based; conditions: 4 μM peptide; for killing of E. coli: no NaCl, within 2 h
# Description: as §3, with “FIG. 4.” for “FIG. 5.”, “of E. coli O157:H7” for “of S. aureus”, “HD-5. E. coli O157:H7” for “HD-5. S. aureus”, “ATCC 700728” for “ATCC 25923”, “with 4” for “with 2”
# as §4
# bacteria = assay: preliminary antibacterial studies, reduced versus refolded rattusin; type: cell-based; conditions: data not shown
# Source text: Similar to several α- and β-defensins (49-52), the central cysteine-rich motif of rattusin is flanked by long flexible N- and C-terminal tails, which are primarily composed of charged and uncharged polar residues (Table 2). The impact of N- and C-terminal tails and five cysteines of rattusin on its antibacterial, cytotoxic, chemotactic, and immuno-modulatory functions is investigated.
Molecule,effect of Mg2+ on activity against S. aureus (S. aureus [1]),cytotoxicity to Caco-2 cells (Caco-2 cells),antibacterial activity in the presence of 100 mM NaCl [2],killing of S. aureus in the presence of 100 mM NaCl (S. aureus ATCC 25923),activity against E. coli in the presence of MgCl2 (E. coli O157:H7 [3]),antibacterial activity with increasing concentrations of NaCl (E. coli O157:H7 [4]),antibacterial activity with increasing concentrations of NaCl (S. aureus [5]),killing of E. coli in the presence of 100 mM NaCl [6],killing of E. coli [6],antibacterial activity in high salt (bacteria)
"I: LRVRRTLQCSCRRVCRNTCSCIRLSRSTYAS / II: LRVRRTLQCSCRRVCRNTCSCIRLSRSTYAS (disulfide I:9-II:21, I:11-II:19, I:15-II:15, I:19-II:11, I:21-II:9) [Rattusin]",did not inhibit; also recorded: potentiated,no cytotoxicity,remained largely unchanged,largely unaffected,largely unaffected,maintained antibacterial activity,maintained antibacterial activity,slightly delayed with a complete killing occurring at 4 h,three logs,
"LRVRRTLQCSCRRVCRNTCSCIRLSRSTYAS [reduced peptide, rattusin in the reduced form, without disulfide bonds]",,,,,,,,,,lost significant activities
B1,,,,significantly inhibited,,,,completely inactivated,three logs,

# — patent US7521535B2, “Anti-microbial defensin-related peptides and methods of use” (priority 2006, dated 2009)
